Source: ChEMBL document CHEMBL1201862, “PubChem BioAssay data set” (2004)
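Tested at 5 concentrations; 48 h exposure; 96-well plates; endpoints linearly interpolated, else capped at highest concentration. GI50: concentration for 50% inhibition of growth.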 Calls of active or inactive are those of the source. No stated cut-off is given here; in the data, active = GI50 up to about 1.1 µM and inactive = higher.

Experiments:
Assay in all cases: NCI tumour cell line growth inhibition, 48 h
SN12C = tested on: SN12C
HL-60 = tested on: HL-60
CAKI-1 = tested on: CAKI-1
KM12 = tested on: KM12
NCI/ADR-RES = tested on: NCI/ADR-RES
NCI-H226 = tested on: NCI-H226
NCI-H460 = tested on: NCI-H460
U-251 = tested on: U-251
K562 = tested on: K562
SF-268 = tested on: SF-268
A498 = tested on: A498
HCC 2998 = tested on: HCC 2998
HOP-62 = tested on: HOP-62
NCI-H522 = tested on: NCI-H522
BT-549 = tested on: BT-549
OVCAR-4 = tested on: OVCAR-4
MCF7 = tested on: MCF7
SF-295 = tested on: SF-295
SNB-75 = tested on: SNB-75
NCI-H23 = tested on: NCI-H23
SK-MEL-2 = tested on: SK-MEL-2
SK-MEL-5 = tested on: SK-MEL-5
LOX IMVI = tested on: LOX IMVI
HT-29 = tested on: HT-29
SW-620 = tested on: SW-620
IGROV-1 = tested on: IGROV-1
PC-3 = tested on: PC-3
HCT-116 = tested on: HCT-116
T47D = tested on: T47D
HCT-15 = tested on: HCT-15
OVCAR-8 = tested on: OVCAR-8
MDA-MB-231 = tested on: MDA-MB-231
SNB-19 = tested on: SNB-19
A549 = tested on: A549
Malme-3M = tested on: Malme-3M
DU-145 = tested on: DU-145
M14 = tested on: M14
EKVX = tested on: EKVX
UACC-257 = tested on: UACC-257
UO-31 = tested on: UO-31
CCRF-CEM = tested on: CCRF-CEM
ACHN = tested on: ACHN
OVCAR-5 = tested on: OVCAR-5
SR = tested on: SR
MDA-MB-435 = tested on: MDA-MB-435
MOLT-4 = tested on: MOLT-4
COLO 205 = tested on: COLO 205
OVCAR-3 = tested on: OVCAR-3
TK-10 = tested on: TK-10
SK-OV-3 = tested on: SK-OV-3
HOP-92 = tested on: HOP-92
786-0 = tested on: 786-0
UACC-62 = tested on: UACC-62
SK-MEL-28 = tested on: SK-MEL-28
SF-539 = tested on: SF-539
MDA-N = tested on: MDA-N
RXF 393 = tested on: RXF 393
RPMI-8226 = tested on: RPMI-8226

`Cc1c(O)c(OC2OC(CO)C(O)C(O)C2O)cc2c1C=C[C@@H]1[C@@]2(C)C(=O)C[C@]2(C)[C@@H]([C@@](C)(O)C(=O)CCC(C)(C)O)[C@H](O)C[C@@]12C` (some centres not stated) was tested, and the GI50 (SN12C) was 19.8 µM (inactive), the GI50 (HL-60) was 41.5 µM (inactive) and the GI50 (CAKI-1) was 20 µM (inactive). The GI50 (KM12) was 25.4 µM (inactive), the GI50 (NCI/ADR-RES) was 25.5 µM (inactive) and the GI50 (NCI-H226) was 23.3 µM (inactive). The GI50 (NCI-H460) was 20.2 µM (inactive), the GI50 (U-251) was 20.7 µM (inactive) and the GI50 (K562) was 34.1 µM (inactive). The GI50 (SF-268) was 28.7 µM (inactive), the GI50 (A498) was 19.5 µM (inactive) and the GI50 (HCC 2998) was 20.5 µM (inactive). The GI50 (HOP-62) was 31.7 µM (inactive), the GI50 (NCI-H522) was 24.6 µM (inactive) and the GI50 (BT-549) was 26.9 µM (inactive). The GI50 (OVCAR-4) was 25.4 µM (inactive), the GI50 (MCF7) was 33.6 µM (inactive) and the GI50 (SF-295) was 17.1 µM (inactive). The GI50 (SNB-75) was 25.1 µM (inactive), the GI50 (NCI-H23) was 17.1 µM (inactive) and the GI50 (SK-MEL-2) was 26.2 µM (inactive). The GI50 (SK-MEL-5) was 23 µM (inactive), the GI50 (LOX IMVI) was 22.6 µM (inactive) and the GI50 (HT-29) was 28.8 µM (inactive). For the same compound, the GI50 (SW-620) was 29 µM (inactive), the GI50 (IGROV-1) was 19.7 µM (inactive) and the GI50 (PC-3) was 21.6 µM (inactive). For the same compound, the GI50 (HCT-116) was 18.9 µM (inactive), the GI50 (T47D) was 18.7 µM (inactive) and the GI50 (HCT-15) was 25.9 µM. The GI50 (OVCAR-8) was 33.3 µM (inactive), the GI50 (MDA-MB-231) was 21.1 µM (inactive) and the GI50 (SNB-19) was 23.2 µM (inactive). For the same compound, the GI50 (A549) was 26.7 µM (inactive), the GI50 (Malme-3M) was 24 µM (inactive) and the GI50 (DU-145) was 23.7 µM (inactive). For the same compound, the GI50 (M14) was 26.4 µM (inactive), the GI50 (EKVX) was 28.6 µM (inactive) and the GI50 (UACC-257) was 20.9 µM (inactive). For the same compound, the GI50 (UO-31) was 20.2 µM (inactive), the GI50 (CCRF-CEM) was 37.3 µM (inactive) and the GI50 (ACHN) was 19.6 µM (inactive). The GI50 (OVCAR-5) was 25.6 µM (inactive), the GI50 (SR) was 35.9 µM (inactive) and the GI50 (MDA-MB-435) was 27.1 µM (inactive). The GI50 (MOLT-4) was 19.7 µM (inactive), the GI50 (COLO 205) was 35.5 µM (inactive) and the GI50 (OVCAR-3) was 22.6 µM (inactive). The GI50 (TK-10) was 18.1 µM (inactive), the GI50 (SK-OV-3) was 15.7 µM (inactive) and the GI50 (HOP-92) was 18.4 µM (inactive). The GI50 (786-0) was 25.2 µM (inactive), the GI50 (UACC-62) was 18.1 µM (inactive) and the GI50 (SK-MEL-28) was 21.1 µM (inactive). For the same compound, the GI50 (SF-539) was 18.1 µM (inactive), the GI50 (MDA-N) was 27.9 µM (inactive) and the GI50 (RXF 393) was 18.6 µM (inactive).
In the case of `Cc1cn(C2CC(SCCO)C(CO)O2)c(=O)[nH]c1=O` (configuration not stated), the GI50 (SN12C) is reported as > 100 µM (inactive), the GI50 (HL-60) is reported as > 100 µM (inactive) and the GI50 (CAKI-1) is reported as > 100 µM (inactive). For the same compound, the GI50 (KM12) was > 100 µM (inactive), the GI50 (NCI/ADR-RES) was > 100 µM (inactive) and the GI50 (NCI-H226) was > 100 µM (inactive). The GI50 (NCI-H460) was > 100 µM (inactive), the GI50 (U-251) was > 100 µM (inactive) and the GI50 (K562) was > 100 µM (inactive). For the same compound, the GI50 (SF-268) was > 100 µM (inactive), the GI50 (A498) was > 100 µM (inactive) and the GI50 (HCC 2998) was > 100 µM (inactive). The GI50 (HOP-62) was > 100 µM (inactive), the GI50 (NCI-H522) was > 100 µM (inactive) and the GI50 (BT-549) was > 100 µM (inactive). The GI50 (OVCAR-4) was > 100 µM (inactive), the GI50 (MCF7) was > 100 µM (inactive) and the GI50 (SF-295) was > 100 µM (inactive). The GI50 (SNB-75) was > 100 µM (inactive), the GI50 (NCI-H23) was > 100 µM (inactive) and the GI50 (RPMI-8226) was > 100 µM (inactive). For the same compound, the GI50 (SK-MEL-2) was > 100 µM (inactive), the GI50 (HT-29) was > 100 µM (inactive) and the GI50 (SW-620) was > 100 µM (inactive). For the same compound, the GI50 (IGROV-1) was > 100 µM (inactive), the GI50 (PC-3) was > 100 µM (inactive) and the GI50 (HCT-116) was > 100 µM (inactive). The GI50 (T47D) was > 100 µM (inactive), the GI50 (HCT-15) was over 100 µM and the GI50 (OVCAR-8) was > 100 µM (inactive). The GI50 (MDA-MB-231) was > 100 µM (inactive), the GI50 (SNB-19) was > 100 µM (inactive) and the GI50 (A549) was > 100 µM (inactive). The GI50 (Malme-3M) was > 100 µM (inactive), the GI50 (DU-145) was > 100 µM (inactive) and the GI50 (M14) was > 100 µM (inactive). The GI50 (EKVX) was > 100 µM (inactive), the GI50 (UACC-257) was > 100 µM (inactive) and the GI50 (UO-31) was > 100 µM (inactive). For the same compound, the GI50 (CCRF-CEM) was > 100 µM (inactive), the GI50 (ACHN) was > 100 µM (inactive) and the GI50 (OVCAR-5) was > 100 µM (inactive). The GI50 (SR) was > 100 µM (inactive), the GI50 (MDA-MB-435) was > 100 µM (inactive) and the GI50 (MOLT-4) was > 100 µM (inactive). For the same compound, the GI50 (COLO 205) was > 100 µM (inactive), the GI50 (OVCAR-3) was > 100 µM (inactive) and the GI50 (SK-OV-3) was > 100 µM (inactive). The GI50 (HOP-92) was > 100 µM (inactive), the GI50 (786-0) was > 100 µM (inactive) and the GI50 (UACC-62) was > 100 µM (inactive). For the same compound, the GI50 (SK-MEL-28) was > 100 µM (inactive), the GI50 (SF-539) was > 100 µM (inactive) and the GI50 (MDA-N) was > 100 µM (inactive). The GI50 (RXF 393) was > 100 µM (inactive).
